Measured values: ChEMBL document CHEMBL4184134, “Daryamide Analogues from a Marine-Derived Streptomyces species” (J Nat Prod, 2017)
Active and inactive are the calls of the source.

Legend:
Homo sapiens = organism: Homo sapiens; experiment: Cytotoxicity against human HCC366 cells assessed as reduction in cell viability at 1 nM to 50 uM incubated for 96 hrs by Cell-titer Glo reagent based assay; type: functional
Pseudomonas aeruginosa = experiment: Antimicrobial activity against Pseudomonas aeruginosa incubated for 24 hrs by paper disk method; type: functional, organism-based
A549 = experiment: Cytotoxicity against human A549 cells assessed as reduction in cell viability at 1 nM to 50 uM incubated for 96 hrs by Cell-titer Glo reagent based assay; type: functional
Bacillus subtilis = experiment: Antimicrobial activity against Bacillus subtilis at incubated for 24 hrs by paper disk method; type: functional, organism-based
HCC44 = experiment: Cytotoxicity against human HCC44 cells assessed as reduction in cell viability at 1 nM to 50 uM incubated for 96 hrs by Cell-titer Glo reagent based assay; type: functional
NCI-H2122 = experiment: Cytotoxicity against human NCI-H2122 cells assessed as reduction in cell viability at 1 nM to 50 uM incubated for 96 hrs by Cell-titer Glo reagent based assay; type: functional

Measured: Activity

CCC/C=C/C=C/C(=O)NC1=C[C@@](O)(CCC(N)=O)[C@H]2O[C@H]2[C@@H]1O
inactive: all assays above

CC(C)C/C=C/C=C/C(=O)N(CCO)c1cc(CCC(=O)O)c(O)cc1O
inactive: all assays above

CC(C)C/C=C/C=C/C(=O)N[C@H]1CCCNC1=O
inactive: all assays above

CC(C)C/C=C/C=C/C(=O)NC1=C[C@@](O)(CCC(N)=O)[C@H]2O[C@H]2[C@@H]1O
inactive: all assays above

CC(C)/C=C/C=C/C(=O)NC1=C[C@@](O)(CCC(N)=O)[C@H]2O[C@H]2[C@@H]1O
inactive: all assays above
